Laboratory results taken from ChEMBL document CHEMBL1128824 (Bioorg Med Chem Lett, 1995).

Key:
[1] = biological target: T1, Protein kinase C alpha type (Homo sapiens, UniProt P17252); experiment: Inhibition of Protein kinase C alpha expressed in Sf-9 cells
[2] = biological target: T2, Protein kinase C epsilon type (Homo sapiens, UniProt Q02156); experiment: Inhibition of protein kinase C epsilon expressed in Sf-9 cells
T2 sequence (Q02156 whole entry): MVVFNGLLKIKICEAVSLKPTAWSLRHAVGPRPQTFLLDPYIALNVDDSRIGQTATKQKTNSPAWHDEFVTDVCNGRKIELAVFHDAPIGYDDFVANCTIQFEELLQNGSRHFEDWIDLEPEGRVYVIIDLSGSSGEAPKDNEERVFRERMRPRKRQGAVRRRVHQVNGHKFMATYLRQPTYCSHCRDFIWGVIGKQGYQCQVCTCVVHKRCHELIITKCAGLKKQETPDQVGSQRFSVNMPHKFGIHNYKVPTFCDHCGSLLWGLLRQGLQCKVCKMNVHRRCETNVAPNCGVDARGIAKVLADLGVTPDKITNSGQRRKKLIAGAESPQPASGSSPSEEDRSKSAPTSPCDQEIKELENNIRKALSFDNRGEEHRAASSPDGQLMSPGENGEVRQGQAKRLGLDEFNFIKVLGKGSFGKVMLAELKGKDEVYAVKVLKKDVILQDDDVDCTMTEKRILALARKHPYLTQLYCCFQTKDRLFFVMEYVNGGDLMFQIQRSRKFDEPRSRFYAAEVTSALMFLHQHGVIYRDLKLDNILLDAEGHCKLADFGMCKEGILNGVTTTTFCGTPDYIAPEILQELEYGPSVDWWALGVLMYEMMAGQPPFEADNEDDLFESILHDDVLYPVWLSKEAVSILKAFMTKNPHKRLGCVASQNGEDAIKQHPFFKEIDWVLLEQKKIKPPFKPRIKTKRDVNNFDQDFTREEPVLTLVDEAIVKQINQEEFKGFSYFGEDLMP

[3] = biological target: T3, Protein kinase C delta type (Homo sapiens, UniProt Q05655); experiment: Inhibition of Protein kinase C delta expressed in Sf-9 cells
[4] = biological target: T4, Protein kinase C beta type (Homo sapiens, UniProt P05771); experiment: Inhibition of Protein kinase C beta 2 expressed in Sf-9 cells
[5] = species on record: Homo sapiens; experiment: Compound was tested for inhibition of phorbol-induced superoxide generation in human neutrophils using neutrophil assay; assay type: functional
[6] = biological target: T5, Protein kinase C eta type (Homo sapiens, UniProt P24723); experiment: Inhibition of Protein kinase C eta expressed in Sf-9 cells
[7] = species on record: Homo sapiens; experiment: Compound was tested for inhibition of phorbol-induced superoxide generation in human neutrophils after 1 hr pre-incubation at 4 degree C using neutrophil assay; value ranges from 2.8-10; assay type: functional
[8] = species on record: Homo sapiens; experiment: Compound was tested for inhibition of phorbol-induced superoxide generation in human neutrophils after 1 hr pre-incubation at 4 degree C using neutrophil assay; assay type: functional
[9] = biological target: T2, Protein kinase C epsilon type; experiment: Inhibition of protein kinase C epsilon expressed in Sf-9 cells (inactive)
[10] = biological target: T1, Protein kinase C alpha type; experiment: Inhibition of Protein kinase C alpha expressed in Sf-9 cells (inactive)
[11] = species on record: Homo sapiens; experiment: Compound was tested for inhibition of phorbol-induced superoxide generation in human neutrophils after 1 hr pre-incubation at 4 degree C using neutrophil assay; value ranges from 0.33-0.85; assay type: functional
[12] = biological target: T3, Protein kinase C delta type; experiment: Inhibition of Protein kinase C delta expressed in Sf-9 cells (inactive)
[13] = biological target: T5, Protein kinase C eta type; experiment: Inhibition of Protein kinase C eta expressed in Sf-9 cells (inactive)
[14] = species on record: Homo sapiens; experiment: Compound was tested for inhibition of phorbol-induced superoxide generation in human neutrophils using neutrophil assay; value ranges from […]-[…]; assay type: functional
[15] = biological target: T4, Protein kinase C beta type; experiment: Inhibition of Protein kinase C beta 2 expressed in Sf-9 cells (inactive)
[16] = species on record: Homo sapiens; experiment: Compound was tested for inhibition of phorbol-induced superoxide generation in human neutrophils using neutrophil assay; value ranges from 0.8-2.1; assay type: functional
[17] = species on record: Homo sapiens; experiment: cells; assay type: functional, organism-based

T4 sequence (P05771 whole entry): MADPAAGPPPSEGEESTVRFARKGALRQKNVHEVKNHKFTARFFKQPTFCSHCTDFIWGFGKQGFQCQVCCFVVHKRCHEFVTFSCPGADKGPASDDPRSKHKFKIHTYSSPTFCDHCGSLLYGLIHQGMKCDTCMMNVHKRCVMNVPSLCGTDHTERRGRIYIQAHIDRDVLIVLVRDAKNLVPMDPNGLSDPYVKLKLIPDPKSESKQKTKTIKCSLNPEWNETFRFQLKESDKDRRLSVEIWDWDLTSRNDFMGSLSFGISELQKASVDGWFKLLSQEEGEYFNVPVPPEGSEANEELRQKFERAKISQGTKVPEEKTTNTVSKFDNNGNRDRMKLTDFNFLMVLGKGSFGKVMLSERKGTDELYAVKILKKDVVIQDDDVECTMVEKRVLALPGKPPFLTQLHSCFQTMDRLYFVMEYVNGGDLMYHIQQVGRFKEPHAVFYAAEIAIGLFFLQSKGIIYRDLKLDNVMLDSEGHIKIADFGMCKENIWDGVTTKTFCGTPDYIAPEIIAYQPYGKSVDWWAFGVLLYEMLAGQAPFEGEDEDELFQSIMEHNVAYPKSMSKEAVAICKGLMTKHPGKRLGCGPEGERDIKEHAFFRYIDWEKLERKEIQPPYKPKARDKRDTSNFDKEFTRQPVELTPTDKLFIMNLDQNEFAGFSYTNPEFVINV
T3 sequence (Q05655 whole entry): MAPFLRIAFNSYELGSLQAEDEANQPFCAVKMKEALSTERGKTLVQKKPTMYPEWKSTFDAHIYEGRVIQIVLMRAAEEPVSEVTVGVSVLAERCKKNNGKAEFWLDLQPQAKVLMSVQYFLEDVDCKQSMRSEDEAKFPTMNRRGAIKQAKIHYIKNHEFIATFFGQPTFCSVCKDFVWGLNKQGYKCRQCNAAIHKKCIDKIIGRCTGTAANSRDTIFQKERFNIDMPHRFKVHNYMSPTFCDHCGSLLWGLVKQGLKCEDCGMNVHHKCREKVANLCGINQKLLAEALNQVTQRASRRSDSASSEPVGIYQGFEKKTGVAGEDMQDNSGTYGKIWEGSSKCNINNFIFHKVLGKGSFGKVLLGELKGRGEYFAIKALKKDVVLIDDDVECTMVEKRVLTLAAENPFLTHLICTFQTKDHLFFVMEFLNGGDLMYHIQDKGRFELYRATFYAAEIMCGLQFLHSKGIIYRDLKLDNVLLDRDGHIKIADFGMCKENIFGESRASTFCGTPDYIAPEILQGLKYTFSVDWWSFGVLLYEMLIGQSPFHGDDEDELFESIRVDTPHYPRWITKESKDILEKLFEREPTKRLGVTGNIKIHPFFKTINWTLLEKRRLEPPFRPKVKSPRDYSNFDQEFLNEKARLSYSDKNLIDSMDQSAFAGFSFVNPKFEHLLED
T5 sequence (P24723 whole entry): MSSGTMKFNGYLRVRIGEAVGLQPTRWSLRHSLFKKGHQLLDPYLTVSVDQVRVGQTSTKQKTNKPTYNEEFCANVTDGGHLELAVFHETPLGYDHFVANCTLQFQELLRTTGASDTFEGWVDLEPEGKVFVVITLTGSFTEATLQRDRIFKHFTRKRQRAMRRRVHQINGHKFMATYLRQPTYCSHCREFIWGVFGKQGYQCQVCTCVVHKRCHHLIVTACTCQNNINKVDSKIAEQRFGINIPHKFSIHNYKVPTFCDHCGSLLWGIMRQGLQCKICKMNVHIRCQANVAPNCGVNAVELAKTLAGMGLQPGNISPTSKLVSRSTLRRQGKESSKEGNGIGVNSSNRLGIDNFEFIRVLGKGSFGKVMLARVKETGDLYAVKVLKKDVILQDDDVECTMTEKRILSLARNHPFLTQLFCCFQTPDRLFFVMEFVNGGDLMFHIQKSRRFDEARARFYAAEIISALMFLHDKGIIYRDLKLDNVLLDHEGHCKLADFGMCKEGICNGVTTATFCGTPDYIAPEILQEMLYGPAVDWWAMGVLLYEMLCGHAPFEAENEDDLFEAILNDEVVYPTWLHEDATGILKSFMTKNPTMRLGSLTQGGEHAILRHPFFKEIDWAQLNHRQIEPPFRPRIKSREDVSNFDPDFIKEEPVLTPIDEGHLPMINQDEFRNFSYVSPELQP

Row | IC50 [1] [nM] | IC50 [2] [nM] | IC50 [3] [nM] | IC50 [4] [nM] | IC50 ([5]; Homo sapiens) [nM] | IC50 [6] [nM] | SMILES | further results
1 | 17000 | 25000 | 310 | 22000 | > 10000 | 50 | O=C(N[C@@H]1CNC[C@H]1OC(=O)c1cc(O)c(C(=O)c2c(O)cccc2C(=O)OCC2CCCCC2)c(O)c1)c1ccc(O)cc1 | 
2 | 160 | 34 | 10 | 20 |  | 4 | CC(C)(C)C(=O)OCOC(=O)c1cccc(O)c1C(=O)c1c(O)cc(C(=O)O[C@@H]2CNC[C@H]2NC(=O)c2ccc(O)cc2)cc1O | IC50 [7]: > 2800 nM
3 | 250 | 170 | 18 | 290 | > 50000 | 16 | COC(=O)c1cccc(O)c1C(=O)c1c(O)cc(C(=O)O[C@@H]2CNC[C@H]2NC(=O)c2ccc(O)cc2)cc1O | 
4 | 2200 | 1300 | 50 | 1000 | > 10000 | 20 | CCOC(=O)c1cccc(O)c1C(=O)c1c(O)cc(C(=O)O[C@@H]2CNC[C@H]2NC(=O)c2ccc(O)cc2)cc1O | 
5 | 4700 | 13000 | 50 | 440 | > 10000 | 260 | CC(C)OC(=O)c1cccc(O)c1C(=O)c1c(O)cc(C(=O)O[C@@H]2CCC[C@H]2NC(=O)c2ccc(O)cc2)cc1O | 
6 |  |  |  |  |  |  | O=C(N[C@@H]1CCC[C@H]1OC(=O)c1cc(O)c(C(=O)c2c(O)cccc2C(=O)O)c(O)c1)c1ccc(O)cc1 | IC50 [8]: > 10000 nM
7 |  |  |  |  | > 50000 |  | O=C(N[C@@H]1CNC[C@H]1OC(=O)c1cc(O)c(C(=O)c2c(O)cccc2C(=O)O)c(O)c1)c1ccc(O)cc1 | 
8 | 920 | 660 | 67 | 1600 | > 2600 | 52 | CCOC(=O)c1cccc(O)c1C(=O)c1c(O)cc(C(=O)O[C@@H]2CCC[C@H]2NC(=O)c2ccc(O)cc2)cc1O | 
9 | 3100 | 3700 | 80 | 2200 | > 10000 | 40 | CCCCOC(=O)c1cccc(O)c1C(=O)c1c(O)cc(C(=O)O[C@@H]2CNC[C@H]2NC(=O)c2ccc(O)cc2)cc1O | 
10 | 130 | 130 | 24 | 20 |  | 14 | CC(=O)OCOC(=O)c1cccc(O)c1C(=O)c1c(O)cc(C(=O)O[C@@H]2CNC[C@H]2NC(=O)c2ccc(O)cc2)cc1O | IC50 [8]: > 10000 nM
11 |  |  |  |  |  |  | CC(C)(C)C(=O)OCOC(=O)c1cccc(O)c1C(=O)c1c(O)cc(C(=O)O[C@@H]2CCC[C@H]2NC(=O)c2ccc(O)cc2)cc1O | IC50 [9]: Not Active; IC50 [10]: Not Active; IC50 [11]: > 330 nM; IC50 [12]: Not Active; IC50 [13]: Not Active; IC50 [14]: > 3680 nM; IC50 [15]: Not Active
12 | 19000 | 3200 | 200 | 20000 | > 10000 | 50 | CC(C)COC(=O)c1cccc(O)c1C(=O)c1c(O)cc(C(=O)O[C@@H]2CNC[C@H]2NC(=O)c2ccc(O)cc2)cc1O | 
13 | 320 | 260 | 30 | 330 |  | 30 | COC(=O)c1cccc(O)c1C(=O)c1c(O)cc(C(=O)O[C@@H]2CCC[C@H]2NC(=O)c2ccc(O)cc2)cc1O (racemic) | IC50 [16]: > 800 nM; IC50 [17]: > 1720 nM
14 | 4200 | 20000 | 250 | 1800 |  | 400 | COC(=O)c1cccc(O)c1C(=O)c1c(O)cc(C(=O)O[C@@H]2CCC[C@H]2NC(=O)c2ccc(O)cc2)cc1O (stereo in doubt; 8 (+)) | IC50 [5]: > 10000 nM
15 | 210 | 300 | 5 | 40 |  | 4 | COC(=O)c1cccc(O)c1C(=O)c1c(O)cc(C(=O)O[C@@H]2CCC[C@H]2NC(=O)c2ccc(O)cc2)cc1O (stereo in doubt; 8 (-)) | IC50 [5]: > 1500 nM
16 |  |  |  |  | > 10000 |  | O=C(N[C@@H]1CNCCC[C@H]1OC(=O)c1cc(O)c(C(=O)c2c(O)cccc2C(=O)O)c(O)c1)c1ccc(O)cc1 [BALANOL] | 
